In ChEMBL document CHEMBL1122184, “Synthesis and antileukemic activity of fluorinated analogues of 2,3-dihydro-5-phenyl-6,7-bis(hydroxymethyl)-1H-pyrrolizine biscarbamate” (J Med Chem, 1982):

What was measured:
Mus musculus [1] = test: In vivo activity of compound was measured against P388 lymphocytic leukemia at the dose of 100 mg/kg; toxic; assay type: functional, organism-based; set-up: dose 100 mg/kg
Mus musculus [2] = test: In vivo activity of compound was measured against P388 lymphocytic leukemia at the dose of 0.78 mg/kg.; assay type: functional
Mus musculus [3] = test: In vivo activity of compound was measured against P388 lymphocytic leukemia at the dose of 6.25 mg/kg.; assay type: functional
Mus musculus [4] = test: In vivo activity of compound was measured against P388 lymphocytic leukemia at the dose of 1.56 mg/kg.; assay type: functional
Mus musculus [5] = test: In vivo activity of compound was measured against P388 lymphocytic leukemia at the dose of 12.5 mg/kg.; assay type: functional
Mus musculus [6] = test: In vivo activity of compound was measured against P388 lymphocytic leukemia at the dose of 25 mg/kg; toxic; assay type: functional, organism-based; set-up: dose 25 mg/kg
Mus musculus [7] = test: In vivo activity of compound was measured against P388 lymphocytic leukemia at the dose of 3.13 mg/kg.; assay type: functional
Mus musculus [8] = test: In vivo activity of compound was measured against P388 lymphocytic leukemia at the dose of 50 mg/kg; toxic; assay type: functional, organism-based; set-up: dose 50 mg/kg
Mus musculus [9] = test: In vivo activity of compound was measured against P388 lymphocytic leukemia at the dose of 200 mg/kg; toxic; assay type: functional, organism-based; set-up: dose 200 mg/kg
Mus musculus [10] = test: In vivo activity of compound was measured against P388 lymphocytic leukemia at the dose of 25 mg/kg.; assay type: functional
Mus musculus [11] = test: In vivo activity of compound was measured against P388 lymphocytic leukemia at the dose of 0.78 mg/kg; toxic; assay type: ADME, organism-based; set-up: dose 0.78 mg/kg
Mus musculus [12] = test: In vivo activity of compound was measured against P388 lymphocytic leukemia at the dose of 100 mg/kg.; assay type: functional
Mus musculus [13] = test: In vivo activity of compound was measured against P388 lymphocytic leukemia at the dose of 50 mg/kg.; assay type: functional
Mus musculus [14] = test: In vivo activity of compound was measured against P388 lymphocytic leukemia at the dose of 0.76 mg/kg.; assay type: functional
Mus musculus [15] = test: In vivo activity of compound was measured against P388 lymphocytic leukemia at the dose of 6.25 mg/kg; assay type: functional
Mus musculus [16] = test: In vivo activity of compound was measured against P388 lymphocytic leukemia at the dose of 12.5 mg/kg; assay type: functional
Mus musculus [17] = test: In vivo activity of compound was measured against P388 lymphocytic leukemia at the dose of 50 mg/kg; assay type: functional
Mus musculus [18] = test: In vivo activity of compound was measured against P388 lymphocytic leukemia at the dose of 25 mg/kg; assay type: functional
Mus musculus [19] = test: In vivo activity of compound was measured against P388 lymphocytic leukemia at the dose of 100 mg/kg; assay type: functional

Compound | T/C (Mus musculus [1]) | T/C (Mus musculus [2]) [%] | T/C (Mus musculus [3]) [%] | T/C (Mus musculus [4]) [%] | T/C (Mus musculus [5]) [%] | T/C (Mus musculus [6]) | T/C (Mus musculus [7]) [%] | T/C (Mus musculus [8]) | T/C (Mus musculus [9]) | T/C (Mus musculus [10]) [%] | T/C (Mus musculus [11]) | T/C (Mus musculus [12]) [%] | T/C (Mus musculus [13]) [%] | T/C (Mus musculus [14]) [%] | T/C (Mus musculus [15]) [%] | T/C (Mus musculus [16]) [%] | T/C (Mus musculus [17]) [%] | T/C (Mus musculus [18]) [%] | T/C (Mus musculus [19]) [%]
CNC(=O)OCc1c(COC(=O)NC)c(-c2ccc(F)cc2)n2c1CCC2 | Toxic | 146 | 137 | 122 | 128 | Toxic | 141 | Toxic | Toxic | – | – | – | – | – | – | – | – | – | –
CNC(=O)OCc1c(COC(=O)NC)c(-c2c(F)cccc2F)n2c1CCC2 | Toxic | – | 166 | – | 148 | – | 148 | Toxic | Toxic | 88 | – | – | – | – | – | – | – | – | –
CC(C)NC(=O)OCc1c(COC(=O)NC(C)C)c(-c2ccc(F)c(F)c2)n2c1CCC2 | – | – | 160 | 126 | 178 | – | 151 | – | Toxic | 123 | Toxic | 70 | 92 | – | – | – | – | – | –
CC(C)NC(=O)OCc1c(COC(=O)NC(C)C)c(-c2ccc(F)cc2F)n2c1CCC2 | Toxic | – | 162 | 142 | 180 | – | 168 | Toxic | Toxic | 99 | – | – | – | 135 | – | – | – | – | –
CNC(=O)OCc1c(COC(=O)NC)c(-c2cccc(F)c2F)n2c1CCC2 | Toxic | – | 131 | – | 149 | – | 134 | Toxic | Toxic | 156 | – | – | – | – | – | – | – | – | –
CNC(=O)OCc1c(COC(=O)NC)c(-c2cc(F)ccc2F)n2c1CCC2 | Toxic | – | – | – | – | – | – | – | Toxic | – | – | – | – | – | 147 | 151 | 73 | 156 | –
CC(C)NC(=O)OCc1c(COC(=O)NC(C)C)c(-c2ccc(Cl)c(Cl)c2)n2c1CCC2 | – | – | 149 | 122 | 177 | – | 141 | – | Toxic | 226 | – | – | – | – | – | – | 160 | – | 113
